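Interpolation was linear, between the two tested concentrations surrounding the appropriate level; five concentrations were tested over 48 hours in 96-well plates. TGI is the concentration that stops growth completely.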
Columns and labels:
Assay in all cases: growth of human tumour cells (NCI), 48 h
A549 NSCLC = tested on: A549 NSCLC
NCI-H460 lung = tested on: NCI-H460 lung
HOP-62 NSCLC = tested on: HOP-62 NSCLC
LOX IMVI melanoma = tested on: LOX IMVI melanoma
DU-145 prostate = tested on: DU-145 prostate
ACHN renal = tested on: ACHN renal
SNB-19 CNS = tested on: SNB-19 CNS
SK-MEL-28 melanoma = tested on: SK-MEL-28 melanoma
IGROV1 ovarian = tested on: IGROV1 ovarian
SK-OV-3 ovarian = tested on: SK-OV-3 ovarian
OVCAR-3 ovarian = tested on: OVCAR-3 ovarian
SF-268 CNS = tested on: SF-268 CNS
KM12 colon = tested on: KM12 colon
HCT-116 colon = tested on: HCT-116 colon
NCI-H23 lung = tested on: NCI-H23 lung
TK-10 renal = tested on: TK-10 renal
MOLT-4 leukemia = tested on: MOLT-4 leukemia
MDA-MB-435 = tested on: MDA-MB-435
SW-620 colon = tested on: SW-620 colon
SK-MEL-2 melanoma = tested on: SK-MEL-2 melanoma
SK-MEL-5 melanoma = tested on: SK-MEL-5 melanoma
SF-539 CNS = tested on: SF-539 CNS
SR leukemia = tested on: SR leukemia
MALME-3M melanoma = tested on: MALME-3M melanoma
PC-3 prostate = tested on: PC-3 prostate
HCT-15 colon = tested on: HCT-15 colon
HS 578T breast = tested on: HS 578T breast
MCF7 breast = tested on: MCF7 breast
MDA-N = tested on: MDA-N
COLO 205 colon = tested on: COLO 205 colon
NCI-H226 lung = tested on: NCI-H226 lung
M14 melanoma = tested on: M14 melanoma
NCI-H522 lung = tested on: NCI-H522 lung
NCI/ADR-RES ovarian = tested on: NCI/ADR-RES ovarian
A498 renal = tested on: A498 renal
HL-60(TB) leukemia = tested on: HL-60(TB) leukemia
OVCAR-4 ovarian = tested on: OVCAR-4 ovarian
SNB-75 CNS = tested on: SNB-75 CNS
SN12C renal = tested on: SN12C renal
OVCAR-8 ovarian = tested on: OVCAR-8 ovarian
UACC-62 melanoma = tested on: UACC-62 melanoma
CCRF-CEM leukemia = tested on: CCRF-CEM leukemia
HOP-92 NSCLC = tested on: HOP-92 NSCLC
SF-295 CNS = tested on: SF-295 CNS
BT-549 breast = tested on: BT-549 breast
T-47D breast = tested on: T-47D breast
CAKI-1 renal = tested on: CAKI-1 renal
U251 CNS = tested on: U251 CNS
UACC-257 melanoma = tested on: UACC-257 melanoma
HT29 colon = tested on: HT29 colon
786-0 renal = tested on: 786-0 renal
RXF 393 renal = tested on: RXF 393 renal
EKVX NSCLC = tested on: EKVX NSCLC
OVCAR-5 ovarian = tested on: OVCAR-5 ovarian
UO-31 renal = tested on: UO-31 renal
MDA-MB-231 breast = tested on: MDA-MB-231 breast
HCC-2998 colon = tested on: HCC-2998 colon
RPMI-8226 leukemia = tested on: RPMI-8226 leukemia
K-562 leukemia = tested on: K-562 leukemia

For CCCCC1=C(C(=O)N2CCOCC2)C2(OCCO2)C1=O, the TGI (A549 NSCLC) was 87.7 µM, the TGI (NCI-H460 lung) was over 100 µM and the TGI (HOP-62 NSCLC) was 54.1 µM. The TGI (LOX IMVI melanoma) was 25.4 µM, the TGI (DU-145 prostate) was over 100 µM and the TGI (ACHN renal) was 34.8 µM. The TGI (SNB-19 CNS) was 43.2 µM, the TGI (SK-MEL-28 melanoma) was 94.8 µM and the TGI (IGROV1 ovarian) was 37 µM. The TGI (SK-OV-3 ovarian) was over 100 µM, the TGI (OVCAR-3 ovarian) was 39.7 µM and the TGI (SF-268 CNS) was 86.7 µM. The TGI (KM12 colon) was 55.9 µM, the TGI (HCT-116 colon) was 48.6 µM and the TGI (NCI-H23 lung) was 51.1 µM. It also gave a TGI (TK-10 renal) of over 100 µM, a TGI (MOLT-4 leukemia) of over 100 µM and a TGI (MDA-MB-435) of 50.8 µM. It also gave a TGI (SW-620 colon) of 81.9 µM, a TGI (SK-MEL-2 melanoma) of 71.7 µM and a TGI (SK-MEL-5 melanoma) of 33.2 µM. The TGI (SF-539 CNS) was 46.5 µM, the TGI (SR leukemia) was over 100 µM and the TGI (MALME-3M melanoma) was 57 µM. It also gave a TGI (PC-3 prostate) of 98.3 µM, a TGI (HCT-15 colon) of 40.3 µM and a TGI (HS 578T breast) of over 100 µM. The TGI (MCF7 breast) was over 100 µM, the TGI (MDA-N) was 71.2 µM and the TGI (COLO 205 colon) was 40.2 µM. For the same compound, the TGI (NCI-H226 lung) was 20.5 µM, the TGI (M14 melanoma) was 43.8 µM and the TGI (NCI-H522 lung) was 32.6 µM. It also gave a TGI (NCI/ADR-RES ovarian) of 57.2 µM, a TGI (A498 renal) of 62.1 µM and a TGI (HL-60(TB) leukemia) of 61.2 µM. It also gave a TGI (OVCAR-4 ovarian) of over 100 µM, a TGI (SNB-75 CNS) of over 100 µM and a TGI (SN12C renal) of 32.7 µM. It also gave a TGI (OVCAR-8 ovarian) of 58.3 µM, a TGI (UACC-62 melanoma) of 94.8 µM and a TGI (CCRF-CEM leukemia) of over 100 µM. It also gave a TGI (HOP-92 NSCLC) of 66.4 µM, a TGI (SF-295 CNS) of over 100 µM and a TGI (BT-549 breast) of 78.8 µM. The TGI (T-47D breast) was over 100 µM, the TGI (CAKI-1 renal) was 78.1 µM and the TGI (U251 CNS) was 88.3 µM. The TGI (UACC-257 melanoma) was 89.9 µM, the TGI (HT29 colon) was 45.1 µM and the TGI (786-0 renal) was 40.6 µM. It also gave a TGI (RXF 393 renal) of 50.3 µM, a TGI (EKVX NSCLC) of over 100 µM and a TGI (OVCAR-5 ovarian) of 46.8 µM. The TGI (UO-31 renal) was 30.3 µM.

O=C(CCc1cc(O)cc(O)c1)NCCCNC(=O)CCc1cc(O)cc(O)c1 was tested, and the TGI (A549 NSCLC) was over 100 µM, the TGI (MDA-MB-231 breast) was over 100 µM and the TGI (HOP-62 NSCLC) was over 100 µM. It also gave a TGI (LOX IMVI melanoma) of over 100 µM, a TGI (DU-145 prostate) of over 100 µM and a TGI (ACHN renal) of over 100 µM. For the same compound, the TGI (SNB-19 CNS) was over 100 µM, the TGI (SK-MEL-28 melanoma) was over 100 µM and the TGI (IGROV1 ovarian) was over 100 µM. It also gave a TGI (HCC-2998 colon) of over 100 µM, a TGI (SK-OV-3 ovarian) of over 100 µM and a TGI (OVCAR-3 ovarian) of over 100 µM. For the same compound, the TGI (SF-268 CNS) was over 100 µM, the TGI (KM12 colon) was over 100 µM and the TGI (HCT-116 colon) was over 100 µM. It also gave a TGI (NCI-H23 lung) of over 100 µM, a TGI (TK-10 renal) of over 100 µM and a TGI (MOLT-4 leukemia) of over 100 µM. For the same compound, the TGI (MDA-MB-435) was over 100 µM, the TGI (SW-620 colon) was over 100 µM and the TGI (SK-MEL-2 melanoma) was over 100 µM. It also gave a TGI (SK-MEL-5 melanoma) of over 100 µM, a TGI (SF-539 CNS) of over 100 µM and a TGI (SR leukemia) of over 100 µM. For the same compound, the TGI (MALME-3M melanoma) was over 100 µM, the TGI (PC-3 prostate) was over 100 µM and the TGI (HCT-15 colon) was over 100 µM. The TGI (MCF7 breast) was over 100 µM, the TGI (MDA-N) was over 100 µM and the TGI (COLO 205 colon) was over 100 µM. The TGI (NCI-H226 lung) was over 100 µM, the TGI (RPMI-8226 leukemia) was over 100 µM and the TGI (M14 melanoma) was over 100 µM. For the same compound, the TGI (NCI-H522 lung) was over 100 µM, the TGI (NCI/ADR-RES ovarian) was over 100 µM and the TGI (A498 renal) was over 100 µM. For the same compound, the TGI (OVCAR-4 ovarian) was over 100 µM, the TGI (SN12C renal) was over 100 µM and the TGI (OVCAR-8 ovarian) was over 100 µM. For the same compound, the TGI (UACC-62 melanoma) was over 100 µM, the TGI (CCRF-CEM leukemia) was over 100 µM and the TGI (HOP-92 NSCLC) was over 100 µM. The TGI (SF-295 CNS) was over 100 µM, the TGI (BT-549 breast) was over 100 µM and the TGI (T-47D breast) was over 100 µM. For the same compound, the TGI (CAKI-1 renal) was over 100 µM, the TGI (U251 CNS) was over 100 µM and the TGI (UACC-257 melanoma) was over 100 µM. It also gave a TGI (HT29 colon) of over 100 µM, a TGI (786-0 renal) of over 100 µM and a TGI (RXF 393 renal) of over 100 µM. For the same compound, the TGI (EKVX NSCLC) was over 100 µM, the TGI (K-562 leukemia) was over 100 µM and the TGI (OVCAR-5 ovarian) was over 100 µM. The TGI (UO-31 renal) was over 100 µM.

Work on COC(=O)C1(CCCCCBr)CCCCCCCCCCC1=O (stereo unspecified) yielded a TGI (A549 NSCLC) of over 100 µM, a TGI (NCI-H460 lung) of over 100 µM and a TGI (MDA-MB-231 breast) of 84.6 µM. It also gave a TGI (HOP-62 NSCLC) of over 100 µM, a TGI (LOX IMVI melanoma) of 63.3 µM and a TGI (DU-145 prostate) of over 100 µM. For the same compound, the TGI (ACHN renal) was over 100 µM, the TGI (SNB-19 CNS) was over 100 µM and the TGI (SK-MEL-28 melanoma) was 92.2 µM. It also gave a TGI (IGROV1 ovarian) of 87.2 µM, a TGI (HCC-2998 colon) of over 100 µM and a TGI (SK-OV-3 ovarian) of over 100 µM. For the same compound, the TGI (OVCAR-3 ovarian) was over 100 µM, the TGI (SF-268 CNS) was over 100 µM and the TGI (KM12 colon) was over 100 µM. The TGI (HCT-116 colon) was over 100 µM, the TGI (NCI-H23 lung) was over 100 µM and the TGI (TK-10 renal) was over 100 µM. The TGI (MOLT-4 leukemia) was 35.6 µM, the TGI (MDA-MB-435) was 87.5 µM and the TGI (SW-620 colon) was over 100 µM. The TGI (SK-MEL-2 melanoma) was 70.1 µM, the TGI (SK-MEL-5 melanoma) was 35.1 µM and the TGI (SF-539 CNS) was over 100 µM. For the same compound, the TGI (SR leukemia) was 55.7 µM, the TGI (MALME-3M melanoma) was 47.6 µM and the TGI (PC-3 prostate) was over 100 µM. For the same compound, the TGI (HCT-15 colon) was over 100 µM, the TGI (HS 578T breast) was over 100 µM and the TGI (MCF7 breast) was 42.2 µM. The TGI (MDA-N) was over 100 µM, the TGI (COLO 205 colon) was over 100 µM and the TGI (NCI-H226 lung) was 66.6 µM. For the same compound, the TGI (M14 melanoma) was over 100 µM, the TGI (NCI-H522 lung) was 47.5 µM and the TGI (NCI/ADR-RES ovarian) was over 100 µM. For the same compound, the TGI (A498 renal) was 64.7 µM, the TGI (HL-60(TB) leukemia) was 49.9 µM and the TGI (OVCAR-4 ovarian) was over 100 µM. For the same compound, the TGI (SN12C renal) was over 100 µM, the TGI (OVCAR-8 ovarian) was over 100 µM and the TGI (UACC-62 melanoma) was over 100 µM. For the same compound, the TGI (CCRF-CEM leukemia) was 45 µM, the TGI (HOP-92 NSCLC) was over 100 µM and the TGI (SF-295 CNS) was over 100 µM. It also gave a TGI (T-47D breast) of over 100 µM, a TGI (CAKI-1 renal) of 53.9 µM and a TGI (U251 CNS) of over 100 µM. For the same compound, the TGI (UACC-257 melanoma) was 70.2 µM, the TGI (HT29 colon) was over 100 µM and the TGI (786-0 renal) was over 100 µM. The TGI (RXF 393 renal) was 51.9 µM, the TGI (EKVX NSCLC) was over 100 µM and the TGI (K-562 leukemia) was over 100 µM. It also gave a TGI (OVCAR-5 ovarian) of over 100 µM and a TGI (UO-31 renal) of 31.8 µM.

— PubChem BioAssay (NCI)
